Target: T1, human alpha-thrombin (Homo sapiens, UniProt P00734)
T1 construct: were reacted with 1.3 picomoles of human alpha-thrombin
Experiment: Thrombin inhibition, residual amidolysis of chromogenic substrate S-2238
Type: biochemical
Conditions: 0.13-1.3 picomoles hirudin with 1.3 picomoles human alpha-thrombin, 0.05 M Tris-HCl pH 7.4, 0.1% BSA, 1 hour at 22° C.
Method: Aliquots of the supernatants were diluted with the Tris-BSA buffer and the reaction initiated by addition of S-2238. Reaction velocities were monitored at 410 nanometers and used to determine thrombin activity. Moles of hirudin analog and its derivatives in each assay were determined by radioiodinated hirudin analog tracer.

Substance: rHV2 Phe^3 Gln^33 Tyr^35 Lys^47 Asp^63 [H-Tyr]
- Thrombin Inhibition (Specific Activity: % of H-Tyr): 100 % of H-Tyr

From patent US6028170A, “Analogs of hirudin” (Baxter International Inc., priority 1998, dated 2000)
